Results from US20250171430A1, “PYRAZOLYL COMPOUNDS AS KV7 CHANNEL ACTIVATORS” (Biohaven Therapeutics Ltd., priority 2022, published 2025).

target: T1, Kv7.2/7.3 (Homo sapiens, UniProt O43525+O43526); test: Kv7.2/7.3 Activation Assay (Thallium Flux Assay); assay type: cell-based; conditions: hKV7.2/7.3 cell line; test compound at single concentration of 10 μM; fluorescence at 90 sec normalized to positive control (retigabine, 30 μM)
T1 construct: Kv7.2 tetracycline-induced, Kv7.3 constitutive
How it was run: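 Human Kv7.2/7.3 cells with Kv7.2 induced overnight by 10 ng/mL tetracycline were loaded with FluxOR II Green for 1 h at 37 °C. Compounds were tested at 10 μM in 0.1% DMSO/extracellular solution, pH 7.4. Thallium/potassium stimulus was added after a 15 s baseline, and 90 s fluorescence (ex 475/em 530 nm) was normalized to 30 μM retigabine.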

| Kv7.2/7.3 Activity | Compound |
| --- | --- |
| ++ (“++” High Activity ≥ 0.7) | Cn1nc(NC(=O)[C@@H]2CC2(F)F)c(C2CCC2)c1C1CC(F)(F)C1 [Compound 156, (S)-N-(4-cyclobutyl-5-(3,3-difluorocyclobutyl)-1-methyl-1H-pyrazol-3-yl)-2,2-difluorocyclopropane-1-carboxamide] |
| ++ (“++” High Activity ≥ 0.7) | Cn1nc(NC(=O)[C@H]2CC2(F)F)c(C2CCC2)c1C1CC(F)(F)C1 [Compound 157, (R)-N-(4-cyclobutyl-5-(3,3-difluorocyclobutyl)-1-methyl-1H-pyrazol-3-yl)-2,2-difluorocyclopropane-1-carboxamide] |
| ++ (“++” High Activity ≥ 0.7) | Cn1nc(NC(=O)C2(C(F)(F)F)CC2)c(C2CCC2)c1C1CC(F)(F)C1 [Compound 158, N-(4-cyclobutyl-5-(3,3-difluorocyclobutyl)-1-methyl-1H-pyrazol-3-yl)-1-(trifluoromethyl)cyclopropane-1-carboxamide] |
| + (“+” Moderate Activity 0.15-0.7) | Cn1nc(NC(=O)[C@H]2CC2(F)F)c(C2CCC2)c1-c1ccc(F)cc1F [Compound 159, (R)-N-(4-cyclobutyl-5-(2,4-difluorophenyl)-1-methyl-1H-pyrazol-3-yl)-2,2-difluorocyclopropane-1-carboxamide] |
| − (“−” No Activity < 0.15) | Cn1nc(NC(=O)[C@@H]2CC2(F)F)c(C2CCC2)c1-c1ccc(F)cc1F [Compound 160, (S)-N-(4-cyclobutyl-5-(2,4-difluorophenyl)-1-methyl-1H-pyrazol-3-yl)-2,2-difluorocyclopropane-1-carboxamide] |
| + (“+” Moderate Activity 0.15-0.7) | Cn1nc(NC(=O)[C@H]2CC2(F)F)c(C2CCC2)c1-c1ccccc1F [Compound 161, (R)-N-(4-cyclobutyl-5-(2-fluorophenyl)-1-methyl-1H-pyrazol-3-yl)-2,2-difluorocyclopropane-1-carboxamide] |
| + (“+” Moderate Activity 0.15-0.7) | Cn1nc(NC(=O)[C@@H]2CC2(F)F)c(C2CCC2)c1-c1ccccc1F [Compound 162, (S)-N-(4-cyclobutyl-5-(2-fluorophenyl)-1-methyl-1H-pyrazol-3-yl)-2,2-difluorocyclopropane-1-carboxamide] |
| + (“+” Moderate Activity 0.15-0.7) | Cn1nc(NC(=O)[C@@H]2CC2(F)F)c(C2CC2)c1-c1ccc(F)cc1 [Compound 163, (S)-N-(4-cyclopropyl-5-(4-fluorophenyl)-1-methyl-1H-pyrazol-3-yl)-2,2-difluorocyclopropane-1-carboxamide] |
| ++ (“++” High Activity ≥ 0.7) | Cn1nc(NC(=O)[C@H]2CC2(F)F)c(C2CC2)c1-c1ccc(F)cc1 [Compound 164, (R)-N-(4-cyclopropyl-5-(4-fluorophenyl)-1-methyl-1H-pyrazol-3-yl)-2,2-difluorocyclopropane-1-carboxamide] |
| ++ (“++” High Activity ≥ 0.7) | Cn1nc(NC(=O)C2(C(F)(F)F)CC2)c(C2CC2)c1-c1ccc(F)cc1 [Compound 165, N-(4-cyclopropyl-5-(4-fluorophenyl)-1-methyl-1H-pyrazol-3-yl)-1-(trifluoromethyl)cyclopropane-1-carboxamide] |
| ++ (“++” High Activity ≥ 0.7) | Cn1nc(NC(=O)C2(C(F)(F)F)CC2)c(C2CCC2)c1-c1cccc(F)c1 [Compound 166, N-(4-cyclobutyl-5-(3-fluorophenyl)-1-methyl-1H-pyrazol-3-yl)-1-(trifluoromethyl)cyclopropane-1-carboxamide] |
| + (“+” Moderate Activity 0.15-0.7) | Cn1nc(NC(=O)[C@@H]2CC2(F)F)c(C2CCC2)c1-c1cccc(F)c1 [Compound 167, (S)-N-(4-cyclobutyl-5-(3-fluorophenyl)-1-methyl-1H-pyrazol-3-yl)-2,2-difluorocyclopropane-1-carboxamide] |
| ++ (“++” High Activity ≥ 0.7) | Cn1nc(NC(=O)[C@H]2CC2(F)F)c(C2CCC2)c1-c1cccc(F)c1 [Compound 168, (R)-N-(4-cyclobutyl-5-(3-fluorophenyl)-1-methyl-1H-pyrazol-3-yl)-2,2-difluorocyclopropane-1-carboxamide] |
| + (“+” Moderate Activity 0.15-0.7) | O=C(Nc1nn(CC(F)(F)F)c(-c2ccc(F)cc2)c1C1CCC1)C1(C(F)(F)F)CC1 [Compound 169, N-(4-cyclobutyl-5-(4-fluorophenyl)-1-(2,2,2-trifluoroethyl)-1H-pyrazol-3-yl)-1-(trifluoromethyl)cyclopropane-1-carboxamide] |
| + (“+” Moderate Activity 0.15-0.7) | Cn1nc(NC(=O)C2(C(F)(F)F)CC2)c(C2CCC2)c1-c1ccccc1F [Compound 170, N-(4-cyclobutyl-5-(2-fluorophenyl)-1-methyl-1H-pyrazol-3-yl)-1-(trifluoromethyl)cyclopropane-1-carboxamide] |
| + (“+” Moderate Activity 0.15-0.7) | Cn1nc(NC(=O)C2(C(C)(F)F)CC2)c(C2CCC2)c1-c1ccccc1F [Compound 171, N-(4-cyclobutyl-5-(2-fluorophenyl)-1-methyl-1H-pyrazol-3-yl)-1-(1,1-difluoroethyl)cyclopropane-1-carboxamide] |
| + (“+” Moderate Activity 0.15-0.7) | Cn1nc(NC(=O)C(C)(C)C(F)F)c(C2CCC2)c1-c1ccccc1F [Compound 172, N-(4-cyclobutyl-5-(2-fluorophenyl)-1-methyl-1H-pyrazol-3-yl)-3,3-difluoro-2,2-dimethylpropanamide] |
| − (“−” No Activity < 0.15) | Cn1nc(NC(=O)[C@H]2CC2(F)F)c(C2CCC2)c1-c1ccc(OC(F)(F)F)cc1 [Compound 173, (R)-N-(4-cyclobutyl-1-methyl-5-(4-(trifluoromethoxy)phenyl)-1H-pyrazol-3-yl)-2,2-difluorocyclopropane-1-carboxamide] |
| + (“+” Moderate Activity 0.15-0.7) | Cn1nc(NC(=O)[C@@H]2CC2(F)F)c(C2CCC2)c1-c1ccc(OC(F)(F)F)cc1 [Compound 174, (S)-N-(4-cyclobutyl-1-methyl-5-(4-(trifluoromethoxy)phenyl)-1H-pyrazol-3-yl)-2,2-difluorocyclopropane-1-carboxamide] |
| ++ (“++” High Activity ≥ 0.7) | Cn1nc(NC(=O)CC(C)(O)c2ccc(F)cc2F)c(C2CCC2)c1-c1ccc(OC(F)(F)F)cc1 (stereo not drawn) [Compound 175, N-(4-cyclobutyl-1-methyl-5-(4-(trifluoromethoxy)phenyl)-1H-pyrazol-3-yl)-3-(2,4-difluorophenyl)-3-hydroxybutanamide] |
| ++ (“++” High Activity ≥ 0.7) | Cn1nc(NC(=O)CC(C)(O)c2ccc(F)cc2F)c(C2CCC2)c1-c1ccc(OC(F)(F)F)cc1 (stereo not drawn) [Compound 176, N-(4-cyclobutyl-1-methyl-5-(4-(trifluoromethoxy)phenyl)-1H-pyrazol-3-yl)-3-(2,4-difluorophenyl)-3-hydroxybutanamide] |
| ++ (“++” High Activity ≥ 0.7) | C[C@H](C(=O)Nc1nn(C)c(-c2ccc(OC(F)(F)F)cc2)c1C1CCC1)C1CC(F)(F)C1 [Compound 177, (S)-N-(4-cyclobutyl-1-methyl-5-(4-(trifluoromethoxy)phenyl)-1H-pyrazol-3-yl)-2-(3,3-difluorocyclobutyl)propanamide] |
| − (“−” No Activity < 0.15) | C[C@@H](C(=O)Nc1nn(C)c(-c2ccc(OC(F)(F)F)cc2)c1C1CCC1)C1CC(F)(F)C1 [Compound 178, (R)-N-(4-cyclobutyl-1-methyl-5-(4-(trifluoromethoxy)phenyl)-1H-pyrazol-3-yl)-2-(3,3-difluorocyclobutyl)propanamide] |
| ++ (“++” High Activity ≥ 0.7) | Cn1nc(NC(=O)C23CC(C(F)(F)F)(C2)C3)c(C2CCC2)c1-c1ccc(F)cc1 [Compound 179, N-(4-cyclobutyl-5-(4-fluorophenyl)-1-methyl-1H-pyrazol-3-yl)-3-(trifluoromethyl)bicyclo[1.1.1]pentane-1-carboxamide] |
| ++ (“++” High Activity ≥ 0.7) | Cn1nc(NC(=O)CC(C(F)(F)F)C(F)(F)F)c(C2CCC2)c1-c1ccc(OC(F)(F)F)cc1 [Compound 180, N-(4-cyclobutyl-1-methyl-5-(4-(trifluoromethoxy)phenyl)-1H-pyrazol-3-yl)-4,4,4-trifluoro-3-(trifluoromethyl)butanamide] |
| − (“−” No Activity < 0.15) | Cn1nc(NC(=O)C(C)(O)c2ccccc2)c(C2CCC2)c1-c1ccc(OC(F)(F)F)cc1 (stereo not drawn) [Compound 181, N-(4-cyclobutyl-1-methyl-5-(4-(trifluoromethoxy)phenyl)-1H-pyrazol-3-yl)-2-hydroxy-2-phenylpropanamide] |
| ++ (“++” High Activity ≥ 0.7) | Cn1nc(NC(=O)C(C)(O)c2ccccc2)c(C2CCC2)c1-c1ccc(OC(F)(F)F)cc1 (stereo not drawn) [Compound 182, N-(4-cyclobutyl-1-methyl-5-(4-(trifluoromethoxy)phenyl)-1H-pyrazol-3-yl)-2-hydroxy-2-phenylpropanamide] |
| ++ (“++” High Activity ≥ 0.7) | Cn1nc(NC(=O)[C@H]2C[C@@H](C)C2)c(C2CCC2)c1-c1ccc(OC(F)(F)F)cc1 [Compound 183, (1s,3s)-N-(4-cyclobutyl-1-methyl-5-(4-(trifluoromethoxy)phenyl)-1H-pyrazol-3-yl)-3-methylcyclobutane-1-carboxamide] |
| ++ (“++” High Activity ≥ 0.7) | Cn1nc(NC(=O)[C@H]2C[C@H](C)C2)c(C2CCC2)c1-c1ccc(OC(F)(F)F)cc1 [Compound 184, (1r,3r)-N-(4-cyclobutyl-1-methyl-5-(4-(trifluoromethoxy)phenyl)-1H-pyrazol-3-yl)-3-methylcyclobutane-1-carboxamide] |
| ++ (“++” High Activity ≥ 0.7) | Cn1nc(NC(=O)C2CC(C)(C)C2)c(C2CCC2)c1-c1ccc(OC(F)(F)F)cc1 [Compound 185, N-(4-cyclobutyl-1-methyl-5-(4-(trifluoromethoxy)phenyl)-1H-pyrazol-3-yl)-3,3-dimethylcyclobutane-1-carboxamide] |
